Test results: US11419913B2, “Pharmaceutical compositions for inhibiting inflammatory cytokines” (S.I.S. SHULOV INNOVATIVE SCIENCE LTD., priority 2018, dated 2022)
≈ marks a conversion by molar mass, not a printed value. Structures can show the parent of a compound that is named as a salt. Where a SMILES comes first, the peptide text is derived from it. [ ]: non-standard residue; d: D form. The star is where a group is joined. pGlu = O=C1CC[C@@H](C(=O)O)N1; Octanoyl = CCCCCCCC(=O)*

Experiments:
[1] = system: oxazolone-induced atopic dermatitis (AD) mouse models; assay: Oxazolone-induced atopic dermatitis mouse model, clinical lesions; type: in vivo
Method: The effect of topical administration of ZEP3 (SEQ ID NO: 1), and its sodium salt form (ZEP3Na), and ZEP4 (SEQ ID NO: 2) was evaluated in oxazolone-induced atopic dermatitis (AD) mouse models. This model is widely used and well described in literature (Avci et al. 2013 Expert Opin Drug Discov. 8, 331-355; Petersen T. K. 2006, Basic Clin. Pharmacol. Toxicol. 99, 104-115) as an accepted animal model for evaluating drugs for AD therapy in humans.

[2] = Oxazolone-induced atopic dermatitis mouse model, tolerability and bodyweights
Method: Method: Animals were sensitized by topical administration of oxazolone 2% in ethanol on the back at Day 0 after shaving and depilation of the animals (sensitization phase). Then a challenge was performed one week later by topical administration of oxazolone 1% in ethanol on the back and on right ear every 2 days at 10 occasions namely for total 3 weeks. The tested compounds were applied during the challenge phase every 2 days via the topical route as ready to use cream formulations. The surface of application was the same as for challenge (back+ear). 100 μL were deposited on the back and the back was smoothly massaged. Then, remaining formulation on finger glove was deposited on the internal face of the ear. Every other day, back skin and ears thickness were measured using caliper; and the following clinical scores were recorded from back skin: erythema and scaling. Animals were also weighed every other day (approximate bodyweights of a mouse at startup is about 20 g).
The formulations used for topical administration of the tested compound were: ZEP3 1% cream having pH 7.1 and comprising: Propylene glycol, Polysorbate 80, Edetate Disodium, Silicon dioxide (syloid), Methylparaben, White petrolatum, Isopropyl Myristate, Cetyl Alcohol and Glyceryl Monostearate. ZEP3Na 1% cream having pH 8.0 and comprising: Propylene glycol, Polysorbate 80, Edetate Disodium, Silicon dioxide (syloid), Methylparaben, White petrolatum, Isopropyl Myristate, Cetyl Alcohol and Glyceryl Monostearate. ZEP4 1% cream having pH 4.5 and comprising: Propylene glycol, Glycerin, Polysorbate 80, EDTA Disodium, Xanthan Gum, Silicon dioxide (syloid), Methylparaben, White petrolatum, Isopropyl Myristate, Cetyl Alcohol, Stearyl Alcohol, and Glyceryl Monostearate (kolliwax).

CMC type arthritis = assay: Treatment of CMC arthritis of the big toe in a subject; type: in vivo, human; conditions: 0.5% cream applied on the swollen area 5 times a day
From the text: Their toe was swollen, red, and so painful that it prevented them from walking. ZEP3 sodium salt at 0.5% cream was applied on the swollen area 5 times a day.

TNF alpha = TNF alpha secretion in LPS treated human keratinocytes (ELISA); type: cell-based; conditions: for TNFα: ZEP3Na without DMSO; for Fold Change: refers to TNF-α concentration in sample #2; for % Inhibition: vs corresponding control group without peptide
Method: Methods: SCCE020 cells (EpiGRO™ Human Epidermal Keratinocytes) were grown in complete growth medium (EpiGRO™ Human Keratinocytes Complete Medium; Millipore Cat. #SCMK001) for 4 passages. At passage 5, cells were seeded (3*10^5 cells/well) in triplicates in a volume of 1 ml complete growth medium per well. Additional 3 control wells contained only medium without cells. Upon adherence, cell medium was replaced by basal medium containing L-Glutamine without supplements (starvation medium) and cells were starved overnight. The next day, 24 hours after seeding, the cells were treated with ZEP3 or ZEP3Na or appropriate diluent (PBS or DMSO). After 4 hours of incubation, LPS (from E. Coli 055: B5; Sigma Cat. #L6529-1MG) was added to the wells in final concentration of 20 or 30 μg/ml.
Cells were incubated for 24 hours in tissue culture incubator. After collecting cell supernatants from all wells, cells from treatment groups: 1, 2, 3, 8, 9, 10, 13, 14 (without DMSO groups) were pelleted and stored at −80° C. for further analyses. The cells were collected from as following: upon supernatants collection, the wells were rinsed with trypsin, then incubated with trypsin until they detached from the plate surface, centrifuged, washed with PBS and stored as a cell pellet. TNF-α concentration in the supernatants was measured by ELISA (Quantikine HS ELISA; R&D Systems Cat. #HSTA00D), in 5 replicates.
TNF alpha concentration in the samples was calculated according to the standard curve trend line equation: =0.063x+0.1718. Percent inhibition of TNF alpha production was calculated in each treatment group in comparison to the corresponding control group (same conditions, without peptide).

physchem = conditions: water
[3] = peptide 0.02 mg/ml, LPS 20 μg/ml
[4] = peptide 0.2 mg/ml, LPS 20 μg/ml
[5] = peptide 0.2 mg/ml, LPS 30 μg/ml
[6] = peptide 0.4 mg/ml, LPS 20 μg/ml

## C[C@H]1C[C@H]2[C@@H]3CCC4=CC(=O)C=C[C@]4(C)[C@@]3(F)[C@@H](O)C[C@]2(C)[C@@]1(O)C(=O)CO [Betamethasone, reference compound]
[1]; day 28, topical, 2.5 mg/kg
  Back skin thickness decrease: 40%
[2]; topical, 2.5 mg/kg
  bodyweight loss: 8-10%

## CCCCCCCC(=O)NCCCC[C@H](NC(=O)[C@H](Cc1c[nH]c2ccccc12)NC(=O)[C@H](CC(N)=O)NC(=O)[C@@H]1CCC(=O)N1)C(=O)O [ZEP3Na, pGlu-Asn-Trp-Lys(Octanoyl)-OH.nNa] ([pGlu]NWK(Octanoyl)-OH)
[1]; 1% cream topical, 50 mg/kg, scaling score of back skin
  Scaling: period of reduction: from days 14 to 24
[1]; days 18, 20 and 22
  Right ear thickness, significant difference in comparison to control: −18.4 to −22.7%
[1]; vs control group
  Erythema scoring: days with a significant difference: day 24
  total score: days with significant difference: days 14, 18, 20 and 22
CMC type arthritis
  time to relief reported by the subject: within one day
  time to resolution of the condition: 3 to 4 days
TNF alpha; compared with cells stimulated with LPS alone
  TNF alpha levels / production in LPS treated human keratinocytes (in words): dose dependent inhibition
TNF alpha; peptide 0.02 mg/ml, LPS 20 μg/ml, ZEP3 in 0.025% DMSO
  TNFα: 9.2 pg/mL
TNF alpha; [3]
  Fold Change: 3.3
  % Inhibition: 26%
TNF alpha; peptide 0.2 mg/ml, LPS 20 μg/ml, ZEP3 in 0.05% DMSO
  TNFα: 6.7 pg/mL
TNF alpha; [4]
  Fold Change: 2.4
  % Inhibition: 46%
TNF alpha; peptide 0.2 mg/ml, LPS 30 μg/ml, ZEP3 in 0.10% DMSO
  TNFα: 13.1 pg/mL
TNF alpha; [5]
  Fold Change: 4.7
  % Inhibition: 38%
TNF alpha; peptide 0.4 mg/ml, LPS 20 μg/ml, ZEP3 in 0.10% DMSO
  TNFα: 5.9 pg/mL
TNF alpha; [6]
  Fold Change: 2.1
  % Inhibition: 52%
physchem
  solubility: 50 mg/mL (≈ 73.1 mM)
[2]; 50 mg/kg topical to atopic dermatitis induced mice
  tolerability: well tolerated
[2]; day 8 to day 28
  Bodyweights in comparison to the excipient: behaved normally

## C[C@@H](O)[C@H](NC(=O)[C@H](Cc1c[nH]c2ccccc12)NC(=O)[C@H](CC(N)=O)NC(=O)[C@@H]1CCC(=O)N1)C(=O)O [ZEP4 sodium salt, pGlu-Asn-Trp-Thr-OH.nNa] (HELM PEPTIDE1{[Glp].N.W.T}$$$$V2.0)
physchem
  solubility: 50 mg/mL
